According to PubChem BioAssay AID248 (DTP/NCI, 2004):
Several values for one entry are separate records, joined by “and”; a condition that tells them apart may be missing. Identical values can stand only once. Inconclusive results and toxic doses are left out. No stated cut-off is given here; in the data, active means T/C of 150% or more; inactive means T/C below 125%.

Test system: L1210 leukemia ip in BDF1 mice, survival T/C
Experiment: NCI In Vivo Anticancer Drug Screen. Data for tumor model L1210 Leukemia (intraperitoneal) in B6D2F1 (BDF1) mice
Details: endpoint: mean survival time, higher = longer survival
Summary of the method: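 Antitumor effect is assessed in tumor-bearing animals. Survival in the compound arm is compared with a vehicle-dosed control arm and expressed as their quotient.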

[1] = dose: 100.0 mg/kg/injection, schedule: Q01DX001 (ip), vehicle: carboxymethylcellulose (CMC)
[2] = dose: 200.0 mg/kg/injection, schedule: Q01DX001 (ip), vehicle: carboxymethylcellulose (CMC)
[3] = dose: 400.0 mg/kg/injection, schedule: Q01DX001 (ip), vehicle: carboxymethylcellulose (CMC)
[4] = dose: 12.5 mg/kg/injection, schedule: Q01DX009 (ip), vehicle: Klucel (hydroxypropylcellulose) (HPC)
[5] = dose: 200.0 mg/kg/injection, schedule: Q04DX003 (ip), vehicle: saline with Tween-80
[6] = dose: 400.0 mg/kg/injection, schedule: Q04DX003 (ip), vehicle: saline with Tween-80
[7] = dose: 100.0 mg/kg/injection, schedule: Q01DX009 (ip), vehicle: Klucel (hydroxypropylcellulose) (HPC)
[8] = dose: 100.0 mg/kg/injection, schedule: Q04DX003 (ip), vehicle: Klucel (hydroxypropylcellulose) (HPC)
[9] = dose: 200.0 mg/kg/injection, schedule: Q01DX009 (ip), vehicle: Klucel (hydroxypropylcellulose) (HPC)
[10] = dose: 200.0 mg/kg/injection, schedule: Q04DX003 (ip), vehicle: Klucel (hydroxypropylcellulose) (HPC)
[11] = dose: 400.0 mg/kg/injection, schedule: Q01DX009 (ip), vehicle: Klucel (hydroxypropylcellulose) (HPC)
[12] = dose: 400.0 mg/kg/injection, schedule: Q04DX003 (ip), vehicle: Klucel (hydroxypropylcellulose) (HPC)
[13] = dose: 100.0 mg/kg/injection, schedule: Q01DX009 (ip), vehicle: saline with Tween-80

Measured: T/C

COC1(OC)C2C(Cl)=C(Cl)C1(Cl)C(Br)C2c1ccccc1 (centres undefined)
inactive: [1] 97 % of control | [2] 92 % of control | [3] 103 % of control

Cc1cc(C(=O)NNCc2ccccc2)no1
inactive: [4] 102 % of control | dose: 25.0 mg/kg/injection, schedule: Q01DX009 (ip), vehicle: Klucel (hydroxypropylcellulose) (HPC) 96 % of control | dose: 50.0 mg/kg/injection, schedule: Q01DX009 (ip), vehicle: Klucel (hydroxypropylcellulose) (HPC) 97 % of control

COC1OC2COC(c3ccccc3)OC2C(=O)C1OS(=O)(=O)c1ccc(C)cc1 (centres undefined)
inactive: [5] 89 % of control | [6] 86 % of control

CC(=O)Nc1ccc(N=C(N)c2ccc(C(N)=Nc3ccc(NC(C)=O)cc3)cc2)cc1
inactive: dose: 62.0 mg/kg/injection, schedule: Q01DX015 (ip), vehicle: methylcellulose (MC) 98 % of control | dose: 125.0 mg/kg/injection, schedule: Q01DX015 (ip), vehicle: methylcellulose (MC) 86 % of control | dose: 250.0 mg/kg/injection, schedule: Q01DX015 (ip), vehicle: methylcellulose (MC) 91 % of control | dose: 500.0 mg/kg/injection, schedule: Q01DX015 (ip), vehicle: methylcellulose (MC) 86 % of control

Cc1cccc(Nc2nc(N)nc(N)c2N)c1
inactive: dose: 25.0 mg/kg/injection, schedule: Q01DX Z (ip), vehicle: saline 101 % of control | dose: 50.0 mg/kg/injection, schedule: Q01DX Z (ip), vehicle: saline 91 % of control

CCC1([N+](=O)[O-])COP(=O)(N2CC2C)OC1 (centres undefined)
inactive: [1] 98 % of control | [2] 96 % of control | [3] 98 % of control

CC1(C)CN1Sc1ccc([N+](=O)[O-])cc1 (centres undefined)
inactive: dose: 25.0 mg/kg/injection, schedule: Q04DX002 (ip), vehicle: Klucel (hydroxypropylcellulose) (HPC) 107 % of control | dose: 50.0 mg/kg/injection, schedule: Q04DX002 (ip), vehicle: Klucel (hydroxypropylcellulose) (HPC) 103 % of control | dose: 100.0 mg/kg/injection, schedule: Q04DX002 (ip), vehicle: Klucel (hydroxypropylcellulose) (HPC) 96 % of control and 107 % of control

O=C1OC(c2ccc(Cl)cc2)=N/C1=C\c1ccc(Cl)c(Cl)c1
inactive: dose: 100.0 mg/kg/injection, schedule: Q04DX002 (ip), vehicle: saline 106 % of control | dose: 200.0 mg/kg/injection, schedule: Q04DX002 (ip), vehicle: saline 92 % of control | dose: 400.0 mg/kg/injection, schedule: Q04DX002 (ip), vehicle: saline 100 % of control

O=C1CCCCCCC12CCCCC2
inactive: [7] 88 % of control | [8] 102 % of control | [9] 98 % of control | [10] 95 % of control | [11] 98 % of control | [12] 91 % of control

Clc1onc(-c2ccccc2)c1-c1ccccc1
inactive: [13] 101 % of control | dose: 100.0 mg/kg/injection, schedule: Q04DX003 (ip), vehicle: saline with Tween-80 107 % of control | dose: 200.0 mg/kg/injection, schedule: Q01DX009 (ip), vehicle: saline with Tween-80 110 % of control | [5] 90 % of control | dose: 400.0 mg/kg/injection, schedule: Q01DX009 (ip), vehicle: saline with Tween-80 97 % of control | [6] 91 % of control

C[n+]1cc2c3ccccc3c(N)cc2c2ccccc21
inactive: dose: 6.25 mg/kg/injection, schedule: Q01DX009 (ip), vehicle: water 114 % of control | dose: 12.5 mg/kg/injection, schedule: Q01DX009 (ip), vehicle: water 118 % of control | dose: 25.0 mg/kg/injection, schedule: Q01DX009 (ip), vehicle: water 117 % of control | dose: 25.0 mg/kg/injection, schedule: Q04DX003 (ip), vehicle: water 118 % of control | dose: 50.0 mg/kg/injection, schedule: Q01DX009 (ip), vehicle: water 90 % of control | dose: 50.0 mg/kg/injection, schedule: Q04DX003 (ip), vehicle: water 98 % of control | dose: 100.0 mg/kg/injection, schedule: Q04DX003 (ip), vehicle: water 93 % of control and 107 % of control

CCCCCCCCOC(=O)C1=NC=NC1=[N+]=[N-]
inactive: dose: 5.0 mg/kg/injection, schedule: Q01DX001 (ip), vehicle: other 107 % of control | dose: 10.0 mg/kg/injection, schedule: Q01DX001 (ip), vehicle: other 110 % of control | dose: 20.0 mg/kg/injection, schedule: Q01DX001 (ip), vehicle: other 104 % of control | dose: 40.0 mg/kg/injection, schedule: Q01DX001 (ip), vehicle: other 101 % of control

O=c1oc(-c2ccccc2Cl)nc2cc(Cl)ccc12
inactive: dose: 50.0 mg/kg/injection, schedule: Q01DX009 (ip), vehicle: saline with Tween-80 96 % of control | [13] 100 % of control

O=[n+]1ccn2ccccc2c1
inactive: dose: 50.0 mg/kg/injection, schedule: Q01DX009 (ip), vehicle: saline 100 % of control | dose: 100.0 mg/kg/injection, schedule: Q01DX009 (ip), vehicle: saline 102 % of control | [8] 98 % of control | [10] 104 % of control

Brc1cc(Br)cc(Br)c1
inactive: [8] 92 % of control and 98 % of control | [10] 101 % of control and 105 % of control | [12] 98 % of control and 103 % of control

CCCC[N+](C)(CCCC)CC(O)c1cc(-c2ccc(Cl)cc2)nc2c(Cl)cc(Cl)cc12 (centres undefined)
inactive: dose: 12.5 mg/kg/injection, schedule: Q04DX003 (ip), vehicle: saline 102 % of control

CCC[CH2][Sn](=[S])[CH2]CCC
inactive: dose: 0.69 mg/kg/injection, schedule: Q01DX009 (ip), vehicle: other 98 % of control | dose: 0.78 mg/kg/injection, schedule: Q01DX009 (ip), vehicle: saline 93 % of control | dose: 1.04 mg/kg/injection, schedule: Q01DX009 (ip), vehicle: other 95 % of control | dose: 1.56 mg/kg/injection, schedule: Q01DX009 (ip), vehicle: other 96 % of control | dose: 1.56 mg/kg/injection, schedule: Q01DX009 (ip), vehicle: saline 112 % of control | dose: 2.34 mg/kg/injection, schedule: Q01DX009 (ip), vehicle: other 107 % of control | dose: 3.12 mg/kg/injection, schedule: Q01DX009 (ip), vehicle: saline 114 % of control | dose: 3.13 mg/kg/injection, schedule: Q01DX009 (ip), vehicle: other 105 % of control | dose: 6.25 mg/kg/injection, schedule: Q01DX009 (ip), vehicle: saline 122 % of control | dose: 12.5 mg/kg/injection, schedule: Q01DX009 (ip), vehicle: other 88 % of control | dose: 12.5 mg/kg/injection, schedule: Q04DX003 (ip), vehicle: other 98 % of control | [1] 115 % of control | [2] 102 % of control | [3] 86 % of control

Oc1ccc(-c2n[nH]c3c2CCCc2ccccc2-3)cc1
inactive: dose: 12.5 mg/kg/injection, schedule: Q01DX001 (ip), vehicle: saline with Tween-80 101 % of control | dose: 12.5 mg/kg/injection, schedule: Q04DX003 (ip), vehicle: saline with Tween-80 103 % of control | dose: 25.0 mg/kg/injection, schedule: Q01DX001 (ip), vehicle: saline with Tween-80 104 % of control | dose: 25.0 mg/kg/injection, schedule: Q04DX003 (ip), vehicle: saline with Tween-80 106 % of control | dose: 50.0 mg/kg/injection, schedule: Q01DX001 (ip), vehicle: saline with Tween-80 108 % of control | dose: 50.0 mg/kg/injection, schedule: Q04DX003 (ip), vehicle: saline with Tween-80 92 % of control

O=C(O)c1ccc(Oc2ccc(C(=O)O)cc2)cc1
inactive: [7] 103 % of control | [8] 97 % of control | [9] 109 % of control | [10] 100 % of control | [11] 100 % of control | [12] 105 % of control

CCCCC(C#N)C1CC=CC(C(=O)O)C1 (centres undefined)
inactive: [1] 101 % of control | [2] 92 % of control | [3] 97 % of control

O=C1c2cccc3cccc(c23)C(=O)N1CCN1C(=O)c2cccc3cccc(c23)C1=O
inactive: dose: 3.13 mg/kg/injection, schedule: Q01DX009 (ip), vehicle: Klucel (hydroxypropylcellulose) (HPC) 100 % of control | dose: 6.25 mg/kg/injection, schedule: Q01DX009 (ip), vehicle: Klucel (hydroxypropylcellulose) (HPC) 103 % of control | [4] 100 % of control

Nc1ncc([N+](=O)[O-])cn1
inactive: [7] 107 % of control | [8] 103 % of control | [9] 91 % of control | [10] 97 % of control | [11] 100 % of control | [12] 94 % of control
